Test results reported in article PMC3789969, “The Allosteric Role of the AAA^+ Domain of ChlD Protein from the Magnesium Chelatase of Synechocystis Species PCC 6803” (The Journal of Biological Chemistry, 2013).

Biological target: T1, magnesium chelatase (ChlI, His6-ChlD, His6-ChlH); porphyrin site (Synechocystis sp. PCC 6803, UniProt P73020)
T1 construct: recombinant from E. coli; His6 tags on ChlD and ChlH; copies are assay ratio; with Magnesium-chelatase subunit ChlI; Magnesium-chelatase subunit ChlD
T1 sequence (P51634 whole entry, form open): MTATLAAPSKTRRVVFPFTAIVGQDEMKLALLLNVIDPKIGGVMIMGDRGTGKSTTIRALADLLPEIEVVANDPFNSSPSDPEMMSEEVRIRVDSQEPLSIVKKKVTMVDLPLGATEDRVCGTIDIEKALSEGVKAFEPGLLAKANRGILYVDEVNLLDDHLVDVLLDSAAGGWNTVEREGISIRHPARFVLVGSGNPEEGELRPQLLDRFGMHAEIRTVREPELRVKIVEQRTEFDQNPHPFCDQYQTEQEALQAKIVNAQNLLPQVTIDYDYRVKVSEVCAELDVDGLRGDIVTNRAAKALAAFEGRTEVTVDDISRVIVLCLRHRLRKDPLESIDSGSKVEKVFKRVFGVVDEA
T1 sequence (P73020 entry or part of it, form open): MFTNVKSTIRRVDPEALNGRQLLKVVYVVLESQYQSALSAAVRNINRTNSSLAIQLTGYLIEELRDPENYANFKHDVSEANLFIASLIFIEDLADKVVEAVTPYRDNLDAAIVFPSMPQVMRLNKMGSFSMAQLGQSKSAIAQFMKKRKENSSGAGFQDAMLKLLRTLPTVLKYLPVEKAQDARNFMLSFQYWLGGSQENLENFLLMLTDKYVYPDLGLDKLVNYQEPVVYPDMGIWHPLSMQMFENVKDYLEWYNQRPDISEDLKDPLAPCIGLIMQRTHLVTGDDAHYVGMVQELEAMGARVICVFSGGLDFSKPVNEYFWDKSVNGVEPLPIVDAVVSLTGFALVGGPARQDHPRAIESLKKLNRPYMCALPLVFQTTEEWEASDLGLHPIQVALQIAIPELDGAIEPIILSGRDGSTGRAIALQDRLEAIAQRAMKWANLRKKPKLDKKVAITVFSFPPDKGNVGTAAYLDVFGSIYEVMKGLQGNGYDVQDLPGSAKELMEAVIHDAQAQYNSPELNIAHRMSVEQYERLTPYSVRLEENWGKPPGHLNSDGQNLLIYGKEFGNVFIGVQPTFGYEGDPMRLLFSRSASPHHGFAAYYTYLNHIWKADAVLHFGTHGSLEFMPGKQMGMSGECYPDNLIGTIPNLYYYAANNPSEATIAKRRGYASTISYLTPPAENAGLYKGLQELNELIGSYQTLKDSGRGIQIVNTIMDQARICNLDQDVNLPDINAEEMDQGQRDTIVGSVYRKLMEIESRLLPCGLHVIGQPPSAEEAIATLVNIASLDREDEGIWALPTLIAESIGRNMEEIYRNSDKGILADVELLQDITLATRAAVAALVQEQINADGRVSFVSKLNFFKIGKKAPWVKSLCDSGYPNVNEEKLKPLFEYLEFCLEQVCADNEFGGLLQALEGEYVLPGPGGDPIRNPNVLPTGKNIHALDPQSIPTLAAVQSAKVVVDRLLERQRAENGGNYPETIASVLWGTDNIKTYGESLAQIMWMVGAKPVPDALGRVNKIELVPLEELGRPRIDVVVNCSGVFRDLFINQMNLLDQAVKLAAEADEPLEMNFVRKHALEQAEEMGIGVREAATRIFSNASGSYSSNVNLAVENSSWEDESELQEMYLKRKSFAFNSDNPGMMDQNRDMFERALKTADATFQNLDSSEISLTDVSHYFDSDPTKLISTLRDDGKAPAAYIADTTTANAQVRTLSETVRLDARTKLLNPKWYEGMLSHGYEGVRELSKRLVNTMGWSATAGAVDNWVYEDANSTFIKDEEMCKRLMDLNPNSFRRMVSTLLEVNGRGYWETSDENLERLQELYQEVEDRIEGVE
T1 sequence (P72772 whole entry R289A, form open, further chain): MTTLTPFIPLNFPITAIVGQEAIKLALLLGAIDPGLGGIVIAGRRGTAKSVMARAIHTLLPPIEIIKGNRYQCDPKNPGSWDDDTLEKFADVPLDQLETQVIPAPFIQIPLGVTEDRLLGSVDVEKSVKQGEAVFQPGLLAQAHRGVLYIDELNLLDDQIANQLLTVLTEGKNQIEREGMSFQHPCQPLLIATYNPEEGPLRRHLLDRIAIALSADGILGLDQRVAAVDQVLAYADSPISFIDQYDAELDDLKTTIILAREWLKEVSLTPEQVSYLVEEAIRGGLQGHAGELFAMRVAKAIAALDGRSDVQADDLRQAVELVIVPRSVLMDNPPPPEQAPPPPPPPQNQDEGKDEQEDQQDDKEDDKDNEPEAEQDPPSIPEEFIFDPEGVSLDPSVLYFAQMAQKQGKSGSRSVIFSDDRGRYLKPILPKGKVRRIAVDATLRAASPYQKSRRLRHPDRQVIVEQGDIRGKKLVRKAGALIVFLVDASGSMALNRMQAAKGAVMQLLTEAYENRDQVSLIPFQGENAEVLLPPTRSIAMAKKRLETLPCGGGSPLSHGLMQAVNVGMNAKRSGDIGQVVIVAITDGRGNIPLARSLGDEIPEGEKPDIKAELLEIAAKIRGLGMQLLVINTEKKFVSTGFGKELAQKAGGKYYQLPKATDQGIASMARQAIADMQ
Experiment: continuous fluorometric MgDIX formation assay, Michaelis-Menten fit
Format: biochemical
Settings: 5 mM ATP, Mg2+ (mutant not saturated with Mg2+), pH 7.7, 34 °C, I 0.1

- Km: 0.99 ± 0.12 µM
SMILES: CC1=C(CCC(=O)O)c2cc3nc(cc4[nH]c(cc4C)cc4[nH]c(cc1n2)cc4C)C(C)=C3CCC(=O)O [deuteroporphyrin IX]
